Data: patent US5230998A, “Method for the prescreening of drugs targeted to the V3 hypervariable loop of the HIV-1 envelope glycoprotein gp 120” (priority 1991, dated 1993)

How the values were obtained:
[1] = system: gp120 expressed on the surface of HIV-1-infected cells; settings: literature; cited from earlier work
[2] = target: T1, HIV-1 IIIB glycoprotein gp120 V3 hypervariable loop (Human immunodeficiency virus type 1 BH10, UniProt P03375); experiment: Inhibition of the reaction between HIV-1 IIIB gp120 and three distinct antibodies reacting with the V3 hypervariable loop (FIGS. 8-11); format: binding; settings: 60 μg/ml, metal complexes versus uncomplexed
T1 construct: b180 also mentions the V3 loop peptide
Description: (§1) FIG. 8 is a bar graph depicting the inhibitory effect of chlorine6 (60 μg/ml) and metal chelates thereof on the reaction between HIV-1 IIIB glycoprotein gp120 and three distinct antibodies reacting with the V3 hypervariable loop of this glycoprotein. The antisera used were rabbit antiserum to a synthetic peptide corresponding to the V3 hypervariable loop of HIV-1 clone BH10, serum of a chimpanzee immunized with V3 hypervariable loop peptides of distinct HIV-1 isolates and monoclonal antibodies (McAb NEA 9305) raised against residues (315-329) of the V3 hypervariable loop of HIV-1 BH10 (Neurath et al (1990), Molec. Immunol., 27, 539-549).
FIG. 9 is a bar graph depicting the inhibitory effect of deuteroporphyrin IX,2-vinyl,4-hydroxymethyl (60 μg/ml) and metal chelates thereof on the reaction between HIV-1 IIIB glycoprotein gp120 and three distinct antibodies reacting with the V3 hypervarible loop of this glycoprotein. The antisera used were rabbit antiserum to a synthetic peptide corresponding to the V3 hypervariable loop of HIV-1 clone BH10, serum of a chimpanzee immunized with V3 hypervariable loop peptides of distinct HIV-1 isolates and monoclonal antibodies (McAb NEA 9305) raised against a synthetic peptide corresponding to residues (315-329) of the V3 hypervariable loop of HIV-1 BH10 (Neurath et al (1990), Molec. Immunol 27, 539-549).
as §1, with “FIG. 10” for “FIG. 8”, “of meso-tetra (4-carboxyphenyl)porphine” for “of chlorine6”, “against a synthetic peptide corresponding to” for “against”, “HIV-1 BH10.” for “HIV-1 BH10”
as §1, with “FIG. 11” for “FIG. 8”, “of uroporphyrin III” for “of chlorine6”, “against a synthetic peptide corresponding to” for “against”, “et al,” for “et al”, “Molec. lmmunol.,” for “Molec. Immunol.,”, “27, 539-549)” for “27, 539-549).”
Monoclonal antibodies (McAbs) recognizing the V3 hypervariable loop of HIV-1 BH 10 (McAb 9305 from DuPont, Wilmington, Del.) and an antiserum from a chimpanzee immunized with a mixture of V3 hypervariable loop peptides from 21 distinct HIV1 isolates (Girard, M., Kieny, M-P., Pinter, A., Barre-Sinoussi, F., Nara, P., Kolbe, H., Kusumi, K., Chaput, A., Reinhart, T., Muchmore, E, Ronco, J., Kaczorek, M., Gomard, E, Gluckman, JC., Fultz, P. N. (1991), "Immunization of Chimpanzees Confers Protection Against Challenge with Human Immunodeficiency Virus", Proc. Natl. Acad. Sci. USA, 88, 542-546) were also used for studies on the inhibitory affect of ATA on the reaction between these antibodies and gp120, using ELISA tests. These tests were carried out similarly as RIA, except that sodium merthiolate (1 mg/ml) was added to the buffers instead of NaN3, and goat antimouse IgG antibodies (Boehringer Mannheim Biochemicals, Indianapolis, Ind.) and goat anti-human IgG antibodies (Sigma, St. Louis, Mo.), respectively, each linked to horseradish peroxidase were used as second antibodies at final dilutions of 1:1,000 in phosphate-buffered saline (PBS) containing 10% goat serum and 0.1% Tween 20. […]

[3] = system: HIV-1 reverse transcriptase; settings: literature; cited from earlier work
[4] = target: T2, HIV-1 gp120 V3 hypervariable loop (Human immunodeficiency virus type 1 group M subtype B, UniProt P03375); experiment: biochemical; format: binding; settings: excess of serum proteins in medium
T2 construct: Polystyrene plates coated with recombinant gp120 and gp160, respectively; purchased American Bio-Technologies, Inc., Cambridge, Mass; host or cells: baculovirus expression system
Description: Wells of 96 well polystyrene plates (Immulon 2, Dynatech Laboratories, Inc., Chantilly, Va.) were coated with synthetic peptides (200 μl; 20μg/ml in 0.1 M Tris-HCl, pH 8.8) overnight at 20° C. The peptides were from the sequence of HIV-1, clone BH 10 envelope glycoproteins gp120 and gp41 (Neurath, A. R., Strick, N., and Lee, E. Y. S. (1990), "B-cell Epitope Mapping of Human Immunodeficiency virus (HIV-1) Envelope Glycoprotein with Long (19 to 36-residue) Synthetic Peptides", J. Gen. Virol., 71., 85-95) and from V3 hypervariable loops of 21 distinct HIV-1 isolates (clones) Neurath, A. R., and Strick, N., (1990), "Confronting the Hypervariability of an Immunodominant Epitope Eliciting Virus Neutralizing Antibodies from the Envelope Glycoprotein of the Human Immunodeficiency Virus Type 1 (HIV-1)", Molec. Immunol., 27, 539-549. The latter peptides corresponded to full-length V3 loops generated by disulfide bonds between N- and C- terminal cysteine residues. After washing with 0.14 M NaCl, 0.01 M Tris, 0.02% NaN3 (TS), the wells were postcoated with a mixture of bovine serum albumin (BSA) and gelatine (10 and 2.5 mg/ml, respectively) in TS. BSA was omitted from the postcoating solution for RIA tests in which antibodies to ATA were used. Polystyrene plates coated with recombinant gp120 and gp160, respectively, (500 ng/well; from American Bio-Technologies, Inc., Cambridge, Mass. and MicroGeneSys, Inc., West Haven, Conn., respectively) were also used for RIA and ELISA tests.
To define sites on gp120/gp41 reacting with ATA, the inhibitory effect of this compound was studied by RIA tests using gp120- and gp160-coated wells, respectively, and antisera (final dilutions 1:150) against synthetic peptides from the entire sequence of gp120/gp41 of HIV-1 BH 10. The preparation and biological properties of these antisera were described elsewhere (Neurath et al., (1990), J. Gen. Virol., 71, 85-95). Each of the antisera was diluted in a mixture of fetal bovine serum and goat serum (9:1) containing 0.1% Tween 20, adjusted to pH 8. ATA (final concentration 50 μg/ml) was added in one set of assays, but was omitted from a parallel set. After incubation overnight at 25° C., the plates were washed with TS. Attached rabbit IgG was detected using ^125 I-labeled anti-rabbit IgG, as described before (Neurath et al., 1990, J. Gen. Virol., 71, 85-95). Similarly, the inhibitory effect of ATA on the reaction of peptides derived from gp120/gp41 and of peptides derived from V3 hypervariable loops from gp120 of distinct HIV-1 isolates with the respective homologous anti-peptide antisera was studied. In the latter case, antisera were diluted 1:1,000 for the assays.
The inhibitory effect of ATA and of other compounds on the reaction between antibodies with predetermined specificity and gp120 (or synthetic peptides derived from it) was determined from the formula: [formula] An analogous formula was used to calculate the percentage of inhibition from optical density readings resulting from ELISA tests.
Chemicals other than ATA were screened for inhibitory activity essentially as described above. […] Chemicals with inhibitory activity established by the respective immunoassays were screened further for antiviral activity.
Commercially available ATA is a mixture of monomers and polymers of distinct molecular masses (Gonzalez et al., (1979) Biochem. Biophys. Acta, 562, 534-545); Cushman et al., (1991), J. Chem., 34, 329-337). The monomers [molecular mass (M.W.)=422.4 daltons] were separated from the polymers. ATA (20 mg/ml in the form of free acid neutralized with 0.4 M NaOH) was dialyzed against H2 O in a dialysis membrane with a molecular mass cutoff of 500 daltons.

CD4 receptor = settings: literature; cited from earlier work
HIV-1 = settings: literature; cited from earlier work

Compound	inhibition of the reaction of gp120 on infected cells with monoclonal anti-gp120 antibodies [1]	inhibitory activity on the interaction between the V3 hypervariable loop of HIV-1-IIIB and antisera [2]	further results
heparin	inhibit the reaction of gp120 expressed on the surface of HIV-1-infected cells with monoclonal anti-gp120 antibodies	–	–
C=Cc1c(C)c2cc3nc(cc4[n-]c(cc5nc(cc1[n-]2)C(C)=C5CO)c(C)c4CCC(=O)O)C(CCC(=O)O)=C3C.[Fe+2]	–	substantially lower than that of the uncomplexed substance or of its Zn derivative	–
O=C(O)c1ccc(-c2c3nc(c(-c4ccc(C(=O)O)cc4)c4ccc([n-]4)c(-c4ccc(C(=O)O)cc4)c4nc(c(-c5ccc(C(=O)O)cc5)c5ccc2[n-]5)C=C4)C=C3)cc1.[Mn+2]	–	drastically reduced inhibitory activity	–
CC1=C/C(=C(\c2ccc(N)c(S(=O)(=O)[O-])c2)c2ccc(N)c(S(=O)(=O)O)c2)C=C(S(=O)(=O)[O-])C1=N.[Na+].[Na+] [substance #145, acid fuchsin]	–	–	inhibition of HIV-1 reverse transcriptase [3]: inhibited the reverse transcriptase of HIV-1; reaction with the V3 hypervariable loop as determined by RIA (ELISA) tests [4]: did not react with the V3 hypervariable loop
O=C(O)c1ccc(-c2c3nc(c(-c4ccc(C(=O)O)cc4)c4ccc([n-]4)c(-c4ccc(C(=O)O)cc4)c4nc(c(-c5ccc(C(=O)O)cc5)c5ccc2[n-]5)C=C4)C=C3)cc1.[Ni+2]	–	drastically reduced inhibitory activity	–
O=C(O)c1ccc(-c2c3nc(c(-c4ccc(C(=O)O)cc4)c4ccc([n-]4)c(-c4ccc(C(=O)O)cc4)c4nc(c(-c5ccc(C(=O)O)cc5)c5ccc2[n-]5)C=C4)C=C3)cc1.[Fe+2]	–	drastically reduced inhibitory activity	–
Cc1cc(-c2ccc(/N=N/c3ccc4c(S(=O)(=O)O)cc(S(=O)(=O)O)c(N)c4c3O)c(C)c2)ccc1/N=N/c1ccc2c(S(=O)(=O)O)cc(S(=O)(=O)O)c(N)c2c1O [substance #28, Evans Blue]	inhibit the reaction of gp120 expressed on the surface of HIV-1-infected cells with monoclonal anti-gp120 antibodies	–	inhibition of the interaction with CD4 receptor (CD4 receptor): inhibited the interaction of the CD4 receptor for HIV-1; inhibition of HIV-1 reverse transcriptase [3]: inhibited the reverse transcriptase of HIV-1; reaction with the V3 hypervariable loop as determined by RIA (ELISA) tests [4]: did not react with the V3 hypervariable loop
O=C(O)c1ccc(-c2c3nc(c(-c4ccc(C(=O)O)cc4)c4ccc([n-]4)c(-c4ccc(C(=O)O)cc4)c4nc(c(-c5ccc(C(=O)O)cc5)c5ccc2[n-]5)C=C4)C=C3)cc1.[Cr+2]	–	drastically reduced inhibitory activity	–
O=C(O)c1ccc(-c2c3nc(c(-c4ccc(C(=O)O)cc4)c4ccc([n-]4)c(-c4ccc(C(=O)O)cc4)c4nc(c(-c5ccc(C(=O)O)cc5)c5ccc2[n-]5)C=C4)C=C3)cc1.[Co+2]	–	drastically reduced inhibitory activity	–
hemin [substance #13]	–	–	inhibition of HIV-1 replication / antiviral activity (HIV-1): anti-HIV-1 activity
Cc1ccc(C(=O)Nc2ccc(S(=O)(=O)O)c3cc(S(=O)(=O)O)cc(S(=O)(=O)O)c23)cc1NC(=O)c1cccc(NC(=O)Nc2cccc(C(=O)Nc3cc(C(=O)Nc4ccc(S(=O)(=O)O)c5cc(S(=O)(=O)O)cc(S(=O)(=O)O)c45)ccc3C)c2)c1 [suramin, reference compound]	inhibit the reaction of gp120 expressed on the surface of HIV-1-infected cells with monoclonal anti-gp120 antibodies	–	inhibition of HIV-1 reverse transcriptase [3]: inhibited the reverse transcriptase of HIV-1
pentosan polysulfate	inhibit the reaction of gp120 expressed on the surface of HIV-1-infected cells with monoclonal anti-gp120 antibodies	–	–
O=C(O)c1ccc(-c2c3nc(c(-c4ccc(C(=O)O)cc4)c4ccc([n-]4)c(-c4ccc(C(=O)O)cc4)c4nc(c(-c5ccc(C(=O)O)cc5)c5ccc2[n-]5)C=C4)C=C3)cc1.[Cu+2]	–	drastically reduced inhibitory activity	–
